Paper PMC5771047 (Current Neuropharmacology, 2017)
Several values for one entry are separate records, joined by “and”; a condition that tells them apart may be missing. Equal values may be shown once. Read-outs that look alike come from different tables or passages of the source.

How the values were obtained:
[1] = pigs, previous study; cited from earlier work
[2] = for concentration at 6 h: pig, iv, 200 µg/kg BW
[3] = cited from earlier work
[4] = one human decedent of five postmortem cases; cited from earlier work
[5] = human fatal case, cited from earlier work
[6] = mice (n = 5), exposure to Magic Gold smoke (3.6% JWH-018, 5.7% JWH-073); cited from earlier work
[7] = pigs, 6 h after single i.v. 200 µg/kg BW

## CCCCCn1cc(C(=O)c2ccc(CC)c3ccccc23)c2ccccc21 [JWH-210, 4-ethylnaphthalen-1-yl-(1-pentylindol-3-yl)methanone]
[1]
  Serum concentration six hours after administration: 3.1 ± 1.1 ng/mL
[2]; bile
  concentration at 6 h: 26 ± 19 ng/g
[2]; brain (cerebellum)
  concentration at 6 h: 32 ± 9 ng/g
[2]; brain (cerebrum)
  concentration at 6 h: 20 ± 6.8 ng/g
[2]; dura
  concentration at 6 h: 1.7 ± 0.8 ng/g
[2]; heart
  concentration at 6 h: 19 ± 6.1 ng/g
[2]; kidney (left)
  concentration at 6 h: 43 ± 34 ng/g
[2]; kidney (right)
  concentration at 6 h: 53 ± 45 ng/g
[2]; liver
  concentration at 6 h: 14 ± 6.2 ng/g
[2]; lung (left)
  concentration at 6 h: 8.6 ± 4.4 ng/g
[2]; lung (right)
  concentration at 6 h: 6.9 ± 2.1 ng/g
[2]; psoas muscle
  concentration at 6 h: 20 ± 9.5 ng/g
[2]; skeletal muscle
  concentration at 6 h: 21 ± 8 ng/g
[2]; spleen
  concentration at 6 h: 11 ± 6.8 ng/g
[2]; [7]
  Detection in vitreous humor (qualitative analysis): positive results

## CCc1ccc(C(=O)c2cn(CCCCC(=O)O)c3ccccc23)c2ccccc12 [JWH-210-COOH, JWH-210-pentanoic acid]
[2]; pigs, 6 h after i.v. 200 µg/kg BW JWH-210, detectable in two cases
  Concentration in kidney specimens, individual cases: 0.5 ng/g and 1 ng/g

## CCCCCc1cc(O)c2c(c1)OC(C)(C)[C@@H]1CCC(C)=C[C@@H]21 [THC, ∆9-tetrahydrocannabinol]
[1]
  Serum concentration six hours after administration: 7.1 ± 4.3 ng/mL
[2]; bile
  concentration at 6 h: 77 ± 83 ng/g
[2]; brain (cerebellum)
  concentration at 6 h: 24 ± 5.8 ng/g
[2]; brain (cerebrum)
  concentration at 6 h: 12 ± 3.8 ng/g
[2]; heart
  concentration at 6 h: 17 ± 7 ng/g
[2]; kidney (left)
  concentration at 6 h: 24 ± 11 ng/g
[2]; kidney (right)
  concentration at 6 h: 21 ± 16 ng/g
[2]; liver
  concentration at 6 h: 18 ± 3.7 ng/g
[2]; lung (left)
  concentration at 6 h: 61 ± 50 ng/g
[2]; lung (right)
  concentration at 6 h: 69 ± 37 ng/g
[2]; psoas muscle
  concentration at 6 h: 9.1 ± 3.3 ng/g
[2]; skeletal muscle
  concentration at 6 h: 16 ± 0.94 ng/g
[2]; spleen
  concentration at 6 h: 7.1 ± 3.8 ng/g
[2]; [7]
  Detection in dura: not detected
  Detection in vitreous humor (qualitative analysis): not detected
[3]
  LogP: 6.7
[4]
  Peak concentration in muscle tissue: 40 ng/g

## Cc1ccc(C(=O)c2cn(CCCCCF)c3ccccc23)c2ccccc12 [MAM-2201]
[5]; postmortem interval about four days
  Concentration in adipose tissue: 1,535 ng/g
[5]; postmortem
  Concentration in brain: 4.3 ng/g
  Concentration in heart blood: 12.4 ng/mL
  Concentration in kidney: 11.2 ng/g
  Concentration in liver: 18.1 ng/g

## CCCCCn1cc(C(=O)c2cccc3ccccc23)c2ccccc21 [JWH-018, naphthalen-1-yl-(1-pentylindol-3-yl)methanone]
[6]
  Concentration in brain specimens twenty hours post-exposure: 19 ± 9 ng/g

## COc1ccc(C(=O)c2cn(CCCCC(=O)O)c3ccccc23)cc1 [RCS-4-COOH, RCS-4-pentanoic acid]
[2]; pigs, 6 h after i.v. 200 µg/kg BW RCS-4, two pigs
  Concentration in bile fluid, individual pigs: 47 ng/g and 154 ng/g

## hydroxypentyl-RCS-4 [HO-RCS-4]
[2]; pigs, 6 h after i.v. 200 µg/kg BW RCS-4, only in two pigs
  Concentration in skeletal muscle, individual pigs: 5.7 ng/g and 1.6 ng/g
[3]
  LogP: 4.08

## hydroxypentyl-JWH-210 [HO-JWH-210]
[2]; pigs, 6 h after i.v. 200 µg/kg BW JWH-210, present in one pig only
  Concentration in abdominal adipose tissue, individual pig: 6 ng/g
[2]; pigs, 6 h after i.v. 200 µg/kg BW JWH-210, present in two pigs only
  Concentration in perirenal adipose tissue, individual pigs: 4.5 ng/g and 9 ng/g
